Assay results: US11911375B2, “Solid oral nicotine formulation” (Fertin Pharma A/S, priority 2020, dated 2024)

Assays:
[1] = Example 15: release of nicotine from NPR (16%) with 1 equivalent of AlCl3 or MgO in water, 28 mg/L nicotine, 25 degrees Celsius, 150 rpm, HPLC; format: physicochemical; settings: 1 equivalent of MgO; release from NPR (16%)
Description: The temperature of the water was 25 degrees Celsius throughout the experiment and stirring of 150 rpm was applied throughout the experiment. pH was measured at experiment start and end.
(§1) A relative low nicotine concentration is used in order to reduce the impact of equilibrium on both the release rate and effective release of nicotine from the ion-exchange resin.
Samples were taken out at varying timepoints and analyzed for nicotine content using standard HPLC. The result is presented as percentage of nicotine released.

[2] = 25 degrees Celsius, atmospheric pressure and pH 7.0; cited from earlier work
[3] = compared with CaCl2; release from NPR (16%)
Description: The temperature of the water was 25 degrees Celsius throughout the experiment and stirring of 100 rpm was applied throughout the experiment. pH was measured at experiment start and end.
as §1
Samples were taken out at varying timepoints and analyzed for nicotine content using standard HPLC. The results are presented as percentage of nicotine released.

Compound	Effect of the presence of MgO on release of nicotine [1]	water-solubility [2]	Effect of NaCl on the release of nicotine [3]
[Mg+2].[O-2] [MgO]	does not increase the release of nicotine	below 5 grams per 100 mL of water	
[Cl-].[Na+] [NaCl]			much lower effect on the release of nicotine
